Measured values as given in publication PMC10940605, “Design, synthesis and in vitro anticancer activity of some new lomefloxacin derivatives” (Scientific Reports, 2024).

How the values were obtained:
Experiment in all cases: NCI-60 SRB screen
Format in all cases: cell-based
[1] = tested on: MCF7; details: Homo sapiens; MCF7, 10^–5 Molar; read-out: Percent growth inhibition
How it was run: (§1)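 Initial single-dose screen: 48 h drug exposure at 10^−5 M in RPMI 1640 medium, 37 °C. Bound SRB measured at […] and converted to % growth inhibition.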

[2] = tested on: UACC-62; details: Homo sapiens; UACC-62, 10^–5 Molar; read-out: Percent growth inhibition
How it was run: (§2)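 Compounds were evaluated at one concentration (10^−5 M) against the cell lines over 48 h. Cell mass was measured by sulforhodamine B staining after trichloroacetic acid fixation, with growth expressed relative to time-zero and control cultures.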

[3] = tested on: NCI-H23; details: Homo sapiens; NCI-H23, 10^–5 Molar; read-out: Percent growth inhibition
How it was run: as §1

[4] = tested on: HCC-2998; details: Homo sapiens; HCC-2998, 10^–5 Molar; read-out: Percent growth inhibition
How it was run: as §1

[5] = tested on: K-562; details: Homo sapiens, K562; K-562, 10^–5 Molar; read-out: Percent growth inhibition
How it was run: as §2

[6] = tested on: UO-31; details: Homo sapiens; UO-31, 10^–5 Molar; read-out: Percent growth inhibition
How it was run: as §1

[7] = tested on: MDA-MB-231/ATCC; details: Homo sapiens, 10^–5 Molar, read-out: Percent growth inhibition
How it was run: as §2

[8] = tested on: PC-3; details: Homo sapiens; PC-3, 10^–5 Molar; read-out: Percent growth inhibition
How it was run: as §2

[9] = tested on: MALME-3M; details: Homo sapiens, 10^–5 Molar, read-out: Percent growth inhibition
How it was run: as §2

[10] = tested on: ACHN; details: Homo sapiens, 10^–5 Molar, read-out: Percent growth inhibition
How it was run: as §2

[11] = tested on: SNB-19; details: Homo sapiens; SNB-19, 10^–5 Molar; read-out: Percent growth inhibition
How it was run: as §2

[12] = tested on: HCT-116; details: Homo sapiens; HCT-116, 10^–5 Molar; read-out: Percent growth inhibition
How it was run: as §1

[13] = tested on: RXF 393; details: Homo sapiens, 48 h; RXF 393, 10^–5 Molar; read-out: Percent growth inhibition
How it was run: as §1

[14] = tested on: CCRF-CEM; details: Homo sapiens, 10^–5 Molar, read-out: Percent growth inhibition
How it was run: as §1

[15] = tested on: A549/ATCC; details: Homo sapiens, 10^–5 Molar, read-out: Percent growth inhibition
How it was run: as §1

[16] = tested on: OVCAR-5; details: Homo sapiens; OVCAR-5, 10^–5 Molar; read-out: Percent growth inhibition
How it was run: as §2

[17] = tested on: LOX IMVI; details: Homo sapiens, 10^–5 Molar, read-out: Percent growth inhibition
How it was run: as §2

[18] = tested on: melanoma SK-MEL-5; details: Homo sapiens; SK-MEL-5, 10^–5 Molar; read-out: Percent growth inhibition
How it was run: as §2

[19] = tested on: OVCAR-8; details: Homo sapiens; OVCAR-8, 10^–5 Molar; read-out: Percent growth inhibition
How it was run: as §1

[20] = tested on: NCI/ADR-RES; details: Homo sapiens, 10^–5 Molar, read-out: Percent growth inhibition
How it was run: as §2

[21] = tested on: SK-MEL-28; details: Homo sapiens; SK-MEL-28, 10^–5 Molar; read-out: Percent growth inhibition
How it was run: as §1

[22] = tested on: OVCAR-4; details: Homo sapiens; OVCAR-4, 10^–5 Molar; read-out: Percent growth inhibition
How it was run: as §1

[23] = tested on: CAKI-1; details: Homo sapiens; CAKI-1, 10^–5 Molar; read-out: Percent growth inhibition
How it was run: as §1

[24] = tested on: U251; details: Homo sapiens, U-251; U251, 10^–5 Molar; read-out: Percent growth inhibition
How it was run: as §1

[25] = tested on: HS 578T; details: Homo sapiens, 10^–5 Molar, read-out: Percent growth inhibition
How it was run: as §1

Structure (SMILES) | inhibition at 10 µM [1] [%] | inhibition at 10 µM [3] [%] | inhibition at 10 µM [4] [%] | inhibition at 10 µM [5] [%] | inhibition at 10 µM [6] [%] | inhibition at 10 µM [7] [%] | inhibition at 10 µM [8] [%] | inhibition at 10 µM [9] [%] | inhibition at 10 µM [10] [%] | inhibition at 10 µM [11] [%] | inhibition at 10 µM [12] [%] | inhibition at 10 µM [13] [%] | inhibition at 10 µM [14] [%] | inhibition at 10 µM [15] [%] | inhibition at 10 µM [16] [%] | inhibition at 10 µM [17] [%] | inhibition at 10 µM [18] [%] | inhibition at 10 µM [19] [%] | inhibition at 10 µM [20] [%] | inhibition at 10 µM [21] [%] | further results
CCn1cc(C(=O)NN=Cc2ccccc2)c(=O)c2cc(F)c(N3CCNC(C)C3)c(F)c21 (centres unmarked) [Compound 3a, N'-Benzylidene-1-ethyl-6,8-difluoro-7-(3-methylpiperazin-1-yl)-4-oxo-1,4-dihydroquinoline-3-carbohydrazide] | 184 | 31.5 | 183 | 139 | 52.5 | 170 | 51.1 | 178 | 43.2 | 81.1 | 42.5 | 161 | 152 | 184 | 33 | 187 | 88.1 | 71.6 | 44 | 179 | inhibition at 10 µM [2]: 128%; inhibition at 10 µM [22]: 29.3%; inhibition at 10 µM [23]: 54.2%; inhibition at 10 µM [24]: 192%; inhibition at 10 µM [25]: 30.3%
CCn1cc(C(=O)NN=Cc2ccc(Br)cc2)c(=O)c2cc(F)c(N3CCNC(C)C3)c(F)c21 (centres unmarked) [Compound 3c, N'-(4-Bromobenzylidene)-1-ethyl-6,8-difluoro-7-(3-methylpiperazin-1-yl)-4-oxo-1,4-dihydroquinoline-3-carbohydrazide] | 177 | 9.03 | 74.1 | 113 | 31.6 | 45.2 | 31.6 | 41.3 | 11.2 | 45.5 | 32.3 | 38.8 | 70.3 | 54.7 | 5.97 | 178 | 17.6 | 42.2 | 16.7 | 8.78 | inhibition at 10 µM [22]: 18.3%; inhibition at 10 µM [23]: 31.5%; inhibition at 10 µM [24]: 98.6%; inhibition at 10 µM [25]: 26.9%
CCn1cc(C(=O)NN=Cc2cccs2)c(=O)c2cc(F)c(N3CCNC(C)C3)c(F)c21 (centres unmarked) [Compound 3e, 1-Ethyl-6,8-difluoro-7-(3-methylpiperazin-1-yl)-4-oxo-N'-(thiophen-2-ylmethylene)-1,4-dihydroquinoline-3-carbohydrazide] | 177 | 10.2 | 71.4 | 139 | 33.2 | 59 | 23.7 | 137 | 12.8 | 27.1 | 5.52 | 83.8 | 32.8 | 56 | 32.8 | 184 | 30.2 | 56.2 | 32.1 | 10.1 | inhibition at 10 µM [2]: 3.47%; inhibition at 10 µM [22]: 23.8%; inhibition at 10 µM [23]: 53.5%; inhibition at 10 µM [24]: 46.7%; inhibition at 10 µM [25]: 13.9%
